Results as given in US20230085307A1, “PYRIDAZINONE COMPOUND AND HERBICIDE” (NISSAN CHEMICAL CORPORATION, priority 2019, published 2023).

Columns and labels:
Italian ryegrass = experiment: Test Example 5: herbicidal effect by foliage application, plastic box (Table 20, symbol K); format: in vivo, Italian ryegrass (Lolium multiflorum); conditions: foliage application, 320 g/ha, 3 weeks after application
In short: (§1)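 Foliar spray test: emulsion formulation diluted in water to a set application rate, sprayed onto 14-day-old plants raised in diluvial soil at 25° C to 30° C under glass. Both herbicidal effect and crop effect rated visually three weeks later.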

southern crabgrass [1] = experiment: Test Example 4: herbicidal effect by soil treatment (Table 19, symbol F); format: in vivo, southern crabgrass (Digitaria ciliaris); conditions: 320 g/ha
In short: (§2)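 Step 1: sow seeds in sterilized diluvial soil, cover ~1.5 cm. Step 2: spray diluted emulsion onto soil surface at predetermined rate. Step 3: greenhouse, 25–30° C, three weeks. Step 4: grade effect on each plant by earlier criteria.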

Chinese sprangletop = experiment: Test Example 3: herbicidal effect by foliage application, Wagner pot (Table 18, symbol D); format: in vivo, chinese sprangletop (Leptochloa chinensis); conditions: 320 g/ha
In short: (§3)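 Plants were sown in alluvial soil held under 0.1–0.5 cm standing water and grown 14 days in a greenhouse at 25–30 °C. An emulsifiable formulation, water-diluted to the set dose, was then sprayed onto the foliage, and effects were scored three weeks later using previously defined criteria.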

windgrass [2] = experiment: Test Example 4: herbicidal effect by soil treatment (Table 19, symbol L); format: in vivo, windgrass (Apera spica-venti); conditions: 320 g/ha
In short: as §2

barnyard grass [3] = experiment: Test Example 3: herbicidal effect by foliage application, Wagner pot (Table 18, symbol H); format: in vivo, barnyard grass (Echinochloa crus-galli); conditions: 320 g/ha
In short: as §3

velvetleaf [4] = experiment: Test Example 5: herbicidal effect by foliage application, plastic box (Table 20, symbol M); format: in vivo, velvetleaf (Abutilon theophrasti); conditions: foliage application, 320 g/ha, 3 weeks after application
In short: as §1

late watergrass = experiment: Test Example 1: herbicidal activity, application before weed generation under submerged conditions (Table 16, symbol A); format: in vivo, late watergrass (Echinochloa oryzicola); conditions: 320 g/ha applied herbicide
In short: (§4)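 Alluvial soil was flooded to 4 cm depth, weed seeds were sown mixed and 2.5-leaf rice seedlings were transplanted. On sowing day, the compound's emulsion, diluted in water to a set dose, was applied to the water surface. Plants grew at 25–30 °C and were scored 0–5 after three weeks.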

windgrass [5] = experiment: Test Example 5: herbicidal effect by foliage application, plastic box (Table 20, symbol L); format: in vivo, windgrass (Apera spica-venti); conditions: foliage application, 320 g/ha, 3 weeks after application
In short: as §1

wild oat = experiment: Test Example 5: herbicidal effect by foliage application, plastic box (Table 20, symbol I); format: in vivo, wild oat (Avena fatua); conditions: foliage application, 320 g/ha, 3 weeks after application
In short: as §1

Japanese bulrush [6] = experiment: Test Example 2: herbicidal activity, application during weed generation under submerged conditions (Table 17, symbol B); format: in vivo, Japanese bulrush (Schoenoplectus juncoides); conditions: AAH 320 g/ha; application during weed generation, submerged conditions
In short: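 3-wk visual-criteria score after one water-surface dose. Emulsion formulation, water-diluted to set rate; applied at 1–2 leaf stage; alluvial soil, 4 cm standing water; seeds co-sown; greenhouse 25–30° C.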

southern crabgrass [7] = experiment: Test Example 5: herbicidal effect by foliage application, plastic box (Table 20, symbol F); format: in vivo, southern crabgrass (Digitaria ciliaris); conditions: foliage application, 320 g/ha, 3 weeks after application
In short: as §1

velvetleaf [8] = experiment: Test Example 4: herbicidal effect by soil treatment (Table 19, symbol M); format: in vivo, velvetleaf (Abutilon theophrasti); conditions: 320 g/ha
In short: as §2

Japanese bulrush [9] = experiment: Test Example 1: herbicidal activity, application before weed generation under submerged conditions (Table 16, symbol B); format: in vivo, Japanese bulrush (Schoenoplectus juncoides); conditions: 320 g/ha applied herbicide
In short: as §4

persian speedwell = experiment: Test Example 5: herbicidal effect by foliage application, plastic box (Table 20, symbol R); format: in vivo, Persian speedwell (Veronica persica); conditions: foliage application, 320 g/ha, 3 weeks after application
In short: as §1

lambsquarters [10] = experiment: Test Example 5: herbicidal effect by foliage application, plastic box (Table 20, symbol O); format: in vivo, lambsquarters (Chenopodium album); conditions: foliage application, 320 g/ha, 3 weeks after application
In short: as §1

barnyard grass [11] = experiment: Test Example 4: herbicidal effect by soil treatment (Table 19, symbol H); format: in vivo, barnyard grass (Echinochloa crus-galli); conditions: 320 g/ha
In short: as §2

lambsquarters [12] = experiment: Test Example 4: herbicidal effect by soil treatment (Table 19, symbol O); format: in vivo, lambsquarters (Chenopodium album); conditions: 320 g/ha
In short: as §2

SMILES | effect on Italian ryegrass (K) (Italian ryegrass) | herbicidal effect rating, F: southern crabgrass (southern crabgrass [1]) | herbicidal effect on D (Chinese sprangletop), rating 0-5 (Chinese sprangletop) | herbicidal effect rating, L: windgrass (windgrass [2]) | herbicidal effect on H (barnyard grass), rating 0-5 (barnyard grass [3]) | effect on velvetleaf (M) (velvetleaf [4]) | Herbicidal effect on A: late watergrass (grade 0-5) (late watergrass) | effect on windgrass (L) (windgrass [5]) | effect on wild oat (I) (wild oat) | herbicidal effect rating, B: Japanese bulrush (Japanese bulrush [6]) | effect on southern crabgrass (F) (southern crabgrass [7]) | herbicidal effect rating, M: velvetleaf (velvetleaf [8]) | Herbicidal effect on B: Japanese bulrush (grade 0-5) (Japanese bulrush [9]) | effect on persian speedwell (R) (persian speedwell) | effect on lambsquarters (O) (lambsquarters [10]) | herbicidal effect rating, H: barnyard grass (barnyard grass [11]) | herbicidal effect rating, O: lambsquarters (lambsquarters [12])
COCc1ccc(-c2sc3ccc(F)cc3c2-c2c(O)c(C)nn(C)c2=O)cc1 [2-022] | 5 (Herbicidal rate of 90% or more (almost completely withered)) | 3 (Herbicidal rate of 40% or more and less than 70%) | 4 (Herbicidal rate of 70% or more and less than 90%) | 5 (Herbicidal rate of 90% or more (almost completely withered)) | 5 (Herbicidal rate of 90% or more (almost completely withered)) | 5 (Herbicidal rate of 90% or more (almost completely withered)) | 2 (Herbicidal rate of 20% or more and less than 40%) | 4 (Herbicidal rate of 70% or more and less than 90%) | 3 (Herbicidal rate of 40% or more and less than 70%) | 2 (Herbicidal rate of 20% or more and less than 40%) | 5 (Herbicidal rate of 90% or more (almost completely withered)) | 4 (Herbicidal rate of 70% or more and less than 90%) | 5 (Herbicidal rate of 90% or more (almost completely withered)) | 5 (Herbicidal rate of 90% or more (almost completely withered)) | 4 (Herbicidal rate of 70% or more and less than 90%) | 5 (Herbicidal rate of 90% or more (almost completely withered)) | 4 (Herbicidal rate of 70% or more and less than 90%)
CCCC(=O)Oc1c(C)nn(C)c(=O)c1-c1c(-c2ccc(COC)cc2)sc2ccc(F)cc12 [2-023] | 4 (Herbicidal rate of 70% or more and less than 90%) | 4 (Herbicidal rate of 70% or more and less than 90%) | 4 (Herbicidal rate of 70% or more and less than 90%) | 0 (Herbicidal rate of 5% or less (almost no effect)) | 5 (Herbicidal rate of 90% or more (almost completely withered)) | 5 (Herbicidal rate of 90% or more (almost completely withered)) | 2 (Herbicidal rate of 20% or more and less than 40%) | 4 (Herbicidal rate of 70% or more and less than 90%) | 0 (Herbicidal rate of 5% or less (almost no effect)) | 0 (Herbicidal rate of 5% or less (almost no effect)) | 5 (Herbicidal rate of 90% or more (almost completely withered)) | 2 (Herbicidal rate of 20% or more and less than 40%) | 0 (Herbicidal rate of 5% or less (almost no effect)) | 5 (Herbicidal rate of 90% or more (almost completely withered)) | 4 (Herbicidal rate of 70% or more and less than 90%) | 4 (Herbicidal rate of 70% or more and less than 90%) | 5 (Herbicidal rate of 90% or more (almost completely withered))
CCCC(=O)Oc1c(C)nn(C)c(=O)c1-c1c(-c2ccc(OC)cc2)sc2ccc(F)cc12 [2-027] | 5 (Herbicidal rate of 90% or more (almost completely withered)) | 3 (Herbicidal rate of 40% or more and less than 70%) | 4 (Herbicidal rate of 70% or more and less than 90%) | 0 (Herbicidal rate of 5% or less (almost no effect)) | 5 (Herbicidal rate of 90% or more (almost completely withered)) | 5 (Herbicidal rate of 90% or more (almost completely withered)) | 4 (Herbicidal rate of 70% or more and less than 90%) | 0 (Herbicidal rate of 5% or less (almost no effect)) | 4 (Herbicidal rate of 70% or more and less than 90%) | 4 (Herbicidal rate of 70% or more and less than 90%) | 4 (Herbicidal rate of 70% or more and less than 90%) | 3 (Herbicidal rate of 40% or more and less than 70%) | 5 (Herbicidal rate of 90% or more (almost completely withered)) | 5 (Herbicidal rate of 90% or more (almost completely withered)) | 5 (Herbicidal rate of 90% or more (almost completely withered)) | 4 (Herbicidal rate of 70% or more and less than 90%) | 5 (Herbicidal rate of 90% or more (almost completely withered))
CCOc1ccc(-c2sc3ccc(F)cc3c2-c2c(O)c(C)nn(C)c2=O)cc1 [2-030] | 3 (Herbicidal rate of 40% or more and less than 70%) | 0 (Herbicidal rate of 5% or less (almost no effect)) | 3 (Herbicidal rate of 40% or more and less than 70%) | 0 (Herbicidal rate of 5% or less (almost no effect)) | 5 (Herbicidal rate of 90% or more (almost completely withered)) | 5 (Herbicidal rate of 90% or more (almost completely withered)) | 3 (Herbicidal rate of 40% or more and less than 70%) | 3 (Herbicidal rate of 40% or more and less than 70%) | 0 (Herbicidal rate of 5% or less (almost no effect)) | 2 (Herbicidal rate of 20% or more and less than 40%) | 3 (Herbicidal rate of 40% or more and less than 70%) | 3 (Herbicidal rate of 40% or more and less than 70%) | 0 (Herbicidal rate of 5% or less (almost no effect)) | 5 (Herbicidal rate of 90% or more (almost completely withered)) | 4 (Herbicidal rate of 70% or more and less than 90%) | 0 (Herbicidal rate of 5% or less (almost no effect)) | 5 (Herbicidal rate of 90% or more (almost completely withered))
